Experimental data from ChEMBL document CHEMBL5303573, “Mapping human microbiome drug metabolism by gut bacteria and their genes” (Nature, 2019).

assay: The drug is tested on Bacteroides cellulosilyticus strain: DSM14838 for biotransformation. The drug concentrations were measured before and after a 12-h incubation by liquid-chromatography-coupled mass spectrometry (LC–MS); settings: 2 µM

Compound	Bacterial Biotransformation
CN(C)C(=O)C(CCN1CCC(O)(c2ccc(Cl)cc2)CC1)(c1ccccc1)c1ccccc1 [LOPERAMIDE]	Compound NOT metabolized

assay: The drug is tested on Eggerthella lenta strain: ATCC25559 for biotransformation. The drug concentrations were measured before and after a 12-h incubation by liquid-chromatography-coupled mass spectrometry (LC–MS); settings: 2 µM

Compound	Bacterial Biotransformation
CCCCC(=O)N(Cc1ccc(-c2ccccc2-c2nnn[nH]2)cc1)[C@H](C(=O)O)C(C)C	Compound NOT metabolized
C[C@@H]1C[C@H]2[C@@H]3CCC4=CC(=O)C=C[C@]4(C)[C@@]3(F)[C@@H](O)C[C@]2(C)[C@@]1(O)C(=O)CO [DEXAMETHASONE]	Compound NOT metabolized
CC12CC3CC(C)(C1)CC(N)(C3)C2 [MEMANTINE]	Compound NOT metabolized
CN(C)C(=O)C(CCN1CCC(O)(c2ccc(Cl)cc2)CC1)(c1ccccc1)c1ccccc1 [LOPERAMIDE]	Compound NOT metabolized

settings: akkermansia muciniphila, 12 h, 2 µM
Description: The drug is tested on Akkermansia muciniphila strain: ATCC BAA-835 for biotransformation. The drug concentrations were measured before and after a 12-h incubation by liquid-chromatography-coupled mass spectrometry (LC–MS)

Compound	Bacterial Biotransformation
CCCCC(=O)N(Cc1ccc(-c2ccccc2-c2nnn[nH]2)cc1)[C@H](C(=O)O)C(C)C	Compound NOT metabolized
C[C@@H]1C[C@H]2[C@@H]3CCC4=CC(=O)C=C[C@]4(C)[C@@]3(F)[C@@H](O)C[C@]2(C)[C@@]1(O)C(=O)CO [DEXAMETHASONE]	Compound NOT metabolized
CC12CC3CC(C)(C1)CC(N)(C3)C2 [MEMANTINE]	Compound NOT metabolized

settings: bacteroides fragilis, 12 h, 2 µM
Description: The drug is tested on Bacteroides fragilis strain: NCTC 9343 for biotransformation. The drug concentrations were measured before and after a 12-h incubation by liquid-chromatography-coupled mass spectrometry (LC–MS)

Compound	Bacterial Biotransformation
CCCCC(=O)N(Cc1ccc(-c2ccccc2-c2nnn[nH]2)cc1)[C@H](C(=O)O)C(C)C	Compound NOT metabolized
CC12CC3CC(C)(C1)CC(N)(C3)C2 [MEMANTINE]	Compound NOT metabolized
CN(C)C(=O)C(CCN1CCC(O)(c2ccc(Cl)cc2)CC1)(c1ccccc1)c1ccccc1 [LOPERAMIDE]	Compound metabolized

assay: The drug is tested on Dorea formicigenerans strain: ATCC27755 for biotransformation. The drug concentrations were measured before and after a 12-h incubation by liquid-chromatography-coupled mass spectrometry (LC–MS); settings: 2 µM

Compound	Bacterial Biotransformation
CCCCC(=O)N(Cc1ccc(-c2ccccc2-c2nnn[nH]2)cc1)[C@H](C(=O)O)C(C)C	Compound NOT metabolized
C[C@@H]1C[C@H]2[C@@H]3CCC4=CC(=O)C=C[C@]4(C)[C@@]3(F)[C@@H](O)C[C@]2(C)[C@@]1(O)C(=O)CO [DEXAMETHASONE]	Compound NOT metabolized
CC12CC3CC(C)(C1)CC(N)(C3)C2 [MEMANTINE]	Compound NOT metabolized
CN(C)C(=O)C(CCN1CCC(O)(c2ccc(Cl)cc2)CC1)(c1ccccc1)c1ccccc1 [LOPERAMIDE]	Compound NOT metabolized

assay: The drug is tested on Ruminococcus gnavus strain: ATCC29149 for biotransformation. The drug concentrations were measured before and after a 12-h incubation by liquid-chromatography-coupled mass spectrometry (LC–MS); settings: mediterraneibacter gnavus, 2 µM

Compound	Bacterial Biotransformation
CCCCC(=O)N(Cc1ccc(-c2ccccc2-c2nnn[nH]2)cc1)[C@H](C(=O)O)C(C)C	Compound NOT metabolized
C[C@@H]1C[C@H]2[C@@H]3CCC4=CC(=O)C=C[C@]4(C)[C@@]3(F)[C@@H](O)C[C@]2(C)[C@@]1(O)C(=O)CO [DEXAMETHASONE]	Compound NOT metabolized
CC12CC3CC(C)(C1)CC(N)(C3)C2 [MEMANTINE]	Compound NOT metabolized
CN(C)C(=O)C(CCN1CCC(O)(c2ccc(Cl)cc2)CC1)(c1ccccc1)c1ccccc1 [LOPERAMIDE]	Compound NOT metabolized

assay: The drug is tested on Providencia rettgeri strain: DSM1131 for biotransformation. The drug concentrations were measured before and after a 12-h incubation by liquid-chromatography-coupled mass spectrometry (LC–MS); format: ADME; set-up: dose 2 uM, timepoint 0 vs 12 hours; settings: 2 µM

Compound	Bacterial Biotransformation
CCCCC(=O)N(Cc1ccc(-c2ccccc2-c2nnn[nH]2)cc1)[C@H](C(=O)O)C(C)C	Compound NOT metabolized
C[C@@H]1C[C@H]2[C@@H]3CCC4=CC(=O)C=C[C@]4(C)[C@@]3(F)[C@@H](O)C[C@]2(C)[C@@]1(O)C(=O)CO [DEXAMETHASONE]	Compound NOT metabolized
CN(C)C(=O)C(CCN1CCC(O)(c2ccc(Cl)cc2)CC1)(c1ccccc1)c1ccccc1 [LOPERAMIDE]	Compound metabolized

assay: The drug is tested on Bifidobacterium longum subsp. Infantis strain: CCUG52486 for biotransformation. The drug concentrations were measured before and after a 12-h incubation by liquid-chromatography-coupled mass spectrometry (LC–MS); settings: 2 µM

Compound	Bacterial Biotransformation
CCCCC(=O)N(Cc1ccc(-c2ccccc2-c2nnn[nH]2)cc1)[C@H](C(=O)O)C(C)C	Compound NOT metabolized
CC12CC3CC(C)(C1)CC(N)(C3)C2 [MEMANTINE]	Compound NOT metabolized

assay: The drug is tested on Collinsella aerofaciens strain: ATCC25986 for biotransformation. The drug concentrations were measured before and after a 12-h incubation by liquid-chromatography-coupled mass spectrometry (LC–MS); settings: 2 µM

Compound	Bacterial Biotransformation
CCCCC(=O)N(Cc1ccc(-c2ccccc2-c2nnn[nH]2)cc1)[C@H](C(=O)O)C(C)C	Compound NOT metabolized
CC12CC3CC(C)(C1)CC(N)(C3)C2 [MEMANTINE]	Compound NOT metabolized
CN(C)C(=O)C(CCN1CCC(O)(c2ccc(Cl)cc2)CC1)(c1ccccc1)c1ccccc1 [LOPERAMIDE]	Compound NOT metabolized

assay: The drug is tested on Enterococcus faecalis strain: V583 for biotransformation. The drug concentrations were measured before and after a 12-h incubation by liquid-chromatography-coupled mass spectrometry (LC–MS); settings: 2 µM

Compound	Bacterial Biotransformation
CCCCC(=O)N(Cc1ccc(-c2ccccc2-c2nnn[nH]2)cc1)[C@H](C(=O)O)C(C)C	Compound NOT metabolized
C[C@@H]1C[C@H]2[C@@H]3CCC4=CC(=O)C=C[C@]4(C)[C@@]3(F)[C@@H](O)C[C@]2(C)[C@@]1(O)C(=O)CO [DEXAMETHASONE]	Compound NOT metabolized
CC12CC3CC(C)(C1)CC(N)(C3)C2 [MEMANTINE]	Compound NOT metabolized
CN(C)C(=O)C(CCN1CCC(O)(c2ccc(Cl)cc2)CC1)(c1ccccc1)c1ccccc1 [LOPERAMIDE]	Compound NOT metabolized

assay: The drug is tested on Bacteroides finegoldii strain: DSM17565 for biotransformation. The drug concentrations were measured before and after a 12-h incubation by liquid-chromatography-coupled mass spectrometry (LC–MS); settings: 2 µM

Compound	Bacterial Biotransformation
CCCCC(=O)N(Cc1ccc(-c2ccccc2-c2nnn[nH]2)cc1)[C@H](C(=O)O)C(C)C	Compound metabolized
C[C@@H]1C[C@H]2[C@@H]3CCC4=CC(=O)C=C[C@]4(C)[C@@]3(F)[C@@H](O)C[C@]2(C)[C@@]1(O)C(=O)CO [DEXAMETHASONE]	Compound NOT metabolized
CC12CC3CC(C)(C1)CC(N)(C3)C2 [MEMANTINE]	Compound NOT metabolized

assay: The drug is tested on Clostridium scindens strain: ATCC35704 for biotransformation. The drug concentrations were measured before and after a 12-h incubation by liquid-chromatography-coupled mass spectrometry (LC–MS); settings: 2 µM

Compound	Bacterial Biotransformation
CCCCC(=O)N(Cc1ccc(-c2ccccc2-c2nnn[nH]2)cc1)[C@H](C(=O)O)C(C)C	Compound NOT metabolized
C[C@@H]1C[C@H]2[C@@H]3CCC4=CC(=O)C=C[C@]4(C)[C@@]3(F)[C@@H](O)C[C@]2(C)[C@@]1(O)C(=O)CO [DEXAMETHASONE]	Compound metabolized
CC12CC3CC(C)(C1)CC(N)(C3)C2 [MEMANTINE]	Compound NOT metabolized
CN(C)C(=O)C(CCN1CCC(O)(c2ccc(Cl)cc2)CC1)(c1ccccc1)c1ccccc1 [LOPERAMIDE]	Compound NOT metabolized

assay: The drug is tested on Coprococcus comes strain: ATCC27758 for biotransformation. The drug concentrations were measured before and after a 12-h incubation by liquid-chromatography-coupled mass spectrometry (LC–MS); format: ADME; set-up: dose 2 uM, timepoint 0 vs 12 hours; settings: 2 µM

Compound	Bacterial Biotransformation
CCCCC(=O)N(Cc1ccc(-c2ccccc2-c2nnn[nH]2)cc1)[C@H](C(=O)O)C(C)C	Compound NOT metabolized
C[C@@H]1C[C@H]2[C@@H]3CCC4=CC(=O)C=C[C@]4(C)[C@@]3(F)[C@@H](O)C[C@]2(C)[C@@]1(O)C(=O)CO [DEXAMETHASONE]	Compound NOT metabolized
CC12CC3CC(C)(C1)CC(N)(C3)C2 [MEMANTINE]	Compound NOT metabolized

assay: The drug is tested on Alistipes indistinctus strain: DSM22520 for biotransformation. The drug concentrations were measured before and after a 12-h incubation by liquid-chromatography-coupled mass spectrometry (LC–MS); settings: 2 µM

Compound	Bacterial Biotransformation
CCCCC(=O)N(Cc1ccc(-c2ccccc2-c2nnn[nH]2)cc1)[C@H](C(=O)O)C(C)C	Compound NOT metabolized
C[C@@H]1C[C@H]2[C@@H]3CCC4=CC(=O)C=C[C@]4(C)[C@@]3(F)[C@@H](O)C[C@]2(C)[C@@]1(O)C(=O)CO [DEXAMETHASONE]	Compound NOT metabolized
CN(C)C(=O)C(CCN1CCC(O)(c2ccc(Cl)cc2)CC1)(c1ccccc1)c1ccccc1 [LOPERAMIDE]	Compound metabolized

settings: bacteroides intestinalis, 12 h, 2 µM
Description: The drug is tested on Bacteroides intestinalis strain: DSM17393 for biotransformation. The drug concentrations were measured before and after a 12-h incubation by liquid-chromatography-coupled mass spectrometry (LC–MS)

Compound	Bacterial Biotransformation
CCCCC(=O)N(Cc1ccc(-c2ccccc2-c2nnn[nH]2)cc1)[C@H](C(=O)O)C(C)C	Compound metabolized
C[C@@H]1C[C@H]2[C@@H]3CCC4=CC(=O)C=C[C@]4(C)[C@@]3(F)[C@@H](O)C[C@]2(C)[C@@]1(O)C(=O)CO [DEXAMETHASONE]	Compound NOT metabolized
CC12CC3CC(C)(C1)CC(N)(C3)C2 [MEMANTINE]	Compound NOT metabolized

assay: The drug is tested on Enterobacter cancerogenus strain: ATCC35316 for biotransformation. The drug concentrations were measured before and after a 12-h incubation by liquid-chromatography-coupled mass spectrometry (LC–MS); settings: 2 µM

Compound	Bacterial Biotransformation
CCCCC(=O)N(Cc1ccc(-c2ccccc2-c2nnn[nH]2)cc1)[C@H](C(=O)O)C(C)C	Compound NOT metabolized
C[C@@H]1C[C@H]2[C@@H]3CCC4=CC(=O)C=C[C@]4(C)[C@@]3(F)[C@@H](O)C[C@]2(C)[C@@]1(O)C(=O)CO [DEXAMETHASONE]	Compound NOT metabolized
CC12CC3CC(C)(C1)CC(N)(C3)C2 [MEMANTINE]	Compound NOT metabolized

settings: segatella copri, 12 h, 2 µM
Description: The drug is tested on Prevotella copri strain: DSM18205 for biotransformation. The drug concentrations were measured before and after a 12-h incubation by liquid-chromatography-coupled mass spectrometry (LC–MS)

Compound	Bacterial Biotransformation
CCCCC(=O)N(Cc1ccc(-c2ccccc2-c2nnn[nH]2)cc1)[C@H](C(=O)O)C(C)C	Compound NOT metabolized
C[C@@H]1C[C@H]2[C@@H]3CCC4=CC(=O)C=C[C@]4(C)[C@@]3(F)[C@@H](O)C[C@]2(C)[C@@]1(O)C(=O)CO [DEXAMETHASONE]	Compound NOT metabolized

assay: The drug is tested on Escherichia coli strain: BW25113 for biotransformation. The drug concentrations were measured before and after a 12-h incubation by liquid-chromatography-coupled mass spectrometry (LC–MS); settings: 2 µM

Compound	Bacterial Biotransformation
CCCCC(=O)N(Cc1ccc(-c2ccccc2-c2nnn[nH]2)cc1)[C@H](C(=O)O)C(C)C	Compound NOT metabolized
C[C@@H]1C[C@H]2[C@@H]3CCC4=CC(=O)C=C[C@]4(C)[C@@]3(F)[C@@H](O)C[C@]2(C)[C@@]1(O)C(=O)CO [DEXAMETHASONE]	Compound NOT metabolized
CC12CC3CC(C)(C1)CC(N)(C3)C2 [MEMANTINE]	Compound NOT metabolized
CN(C)C(=O)C(CCN1CCC(O)(c2ccc(Cl)cc2)CC1)(c1ccccc1)c1ccccc1 [LOPERAMIDE]	Compound metabolized

settings: bifidobacterium adolescentis, 12 h, 2 µM
Description: The drug is tested on Bifidobacterium adolescentis strain: ATCC 15703 for biotransformation. The drug concentrations were measured before and after a 12-h incubation by liquid-chromatography-coupled mass spectrometry (LC–MS)

Compound	Bacterial Biotransformation
CCCCC(=O)N(Cc1ccc(-c2ccccc2-c2nnn[nH]2)cc1)[C@H](C(=O)O)C(C)C	Compound NOT metabolized
C[C@@H]1C[C@H]2[C@@H]3CCC4=CC(=O)C=C[C@]4(C)[C@@]3(F)[C@@H](O)C[C@]2(C)[C@@]1(O)C(=O)CO [DEXAMETHASONE]	Compound NOT metabolized
CC12CC3CC(C)(C1)CC(N)(C3)C2 [MEMANTINE]	Compound NOT metabolized
CN(C)C(=O)C(CCN1CCC(O)(c2ccc(Cl)cc2)CC1)(c1ccccc1)c1ccccc1 [LOPERAMIDE]	Compound NOT metabolized

settings: enterocloster bolteae, 12 h, 2 µM
Description: The drug is tested on Clostridium bolteae strain: ATCCBAA-613 for biotransformation. The drug concentrations were measured before and after a 12-h incubation by liquid-chromatography-coupled mass spectrometry (LC–MS)

Compound	Bacterial Biotransformation
CCCCC(=O)N(Cc1ccc(-c2ccccc2-c2nnn[nH]2)cc1)[C@H](C(=O)O)C(C)C	Compound NOT metabolized
CC12CC3CC(C)(C1)CC(N)(C3)C2 [MEMANTINE]	Compound NOT metabolized
CN(C)C(=O)C(CCN1CCC(O)(c2ccc(Cl)cc2)CC1)(c1ccccc1)c1ccccc1 [LOPERAMIDE]	Compound NOT metabolized
